Results: patent US11160788B2, “Caspase-1 inhibition and uses thereof for prevention and treatment of neurological conditions” (priority 2016, dated 2021)
pIC50: −log10 of the molar value. Entries after “also recorded” stand apart in the source; their conditions may differ.

Columns and labels:
[1] = Blood brain barrier permeability, brain and plasma levels; type: in vivo, mouse; settings: WT and J20 mice
Method: (§1) FIG. 14: Selectivity and blood brain permeability of VX-765 and VRT-043198. (a-b) IC50 of VX-765 (a) and VRT-043198 (b) against human Casp1-10. (c-d) IC50 of VX-765 (c) and VRT-043198 (d) against mouse Casp1 and Casp11. (e) Blood brain barrier permeability and presence of VX-765 and VRT-043198 in 3 wild type and 4 J20 mice brain cortex and hippocampus and in plasma. Ratios of brain levels to plasma levels are calculated.

[2] = tested on: J20 mice; assay: Iba1 microglia immunohistochemistry, treated symptomatic J20 mice brains; type: in vivo, mouse
Source text: FIG. 10: VX-765 reverses neuroinflammation in J20 mice. (a) Iba-1 positive microglia immunohistographs in the stratum lacunosum molecular area of the hippocampus and S1 of cortex (Scale bar=50 μm). (b) Stereological quantification of Iba-1^+ microglia for WT+Vehicle (n=6), J20+Vehicle (n=5), and J20+VX-765 (n=4) in the hippocampus from the pyramidal cell layer to the stratum lacunosum molecular layer (F(2,11)=58, p<0.0001) and cortex (F(2,11)=39.95, p<0.0001, ANOVA, Dunnett's post-hoc compared to J20+Vehicle, ***p<0.001). (c) Average percentage distribution of morphological microglial subtypes 1 (black (lowermost) bar), 2 (light grey bar), 3 (dark grey bar) and 4 (black (uppermost) bar). (d) II1-β pg/mg levels measured by ELISA in pre-treated J20 at 5 months of age and in treated WT and J20 8 months of age. (e) Astroglial GFAP^+ immunohistographs.
To assess AD-like pathology, immunohistochemical analyses were performed to detect amyloid deposition (anti-AβF25276)^5,6, microglial (Iba1) activation^7, astrogliosis (GFAP), synaptophysin protein levels on coronal brain sections. Multiplex MSD ELISA was used to assess Aβ levels and 38,40, and 42 subtypes, and II-1β brain levels. RT-PCR was used to assess levels of human APP^Sw/Ind.

[3] = target: T1, recombinant human Casp1 (Homo sapiens, UniProt P29466); assay: Caspase inhibition IC50, recombinant human Casp1; type: biochemical; settings: read-out: IC50 against human Casp1
T1 sequence (P29466 120-297 limits assumed): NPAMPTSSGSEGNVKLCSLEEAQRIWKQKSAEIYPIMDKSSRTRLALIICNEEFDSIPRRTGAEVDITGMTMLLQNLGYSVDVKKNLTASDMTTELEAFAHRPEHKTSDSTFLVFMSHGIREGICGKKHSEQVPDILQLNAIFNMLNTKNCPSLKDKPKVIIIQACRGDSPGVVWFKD
T1 sequence (P29466 317-404 limits assumed): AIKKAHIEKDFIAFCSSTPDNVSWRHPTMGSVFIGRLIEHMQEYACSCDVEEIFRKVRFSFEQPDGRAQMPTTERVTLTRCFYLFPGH
Method: as §1

[4] = tested on: J20 mice; assay: Amyloid immunostaining and ELISA, preventive treatment of J20 mice; type: in vivo, mouse
Source text: FIG. 24: Immunostaining of mice brains at 8 months of age (20 week washout) with anti-amyloid beta peptide 1-40 antiserum (a). […] (b) Quantitation of the immunopositive density of amyloid staining at 4, 8, 12, 16, and 20 weeks washout of VX-765 when mice are 4, 5, 6, 7, and 8 months respectively. (c) ELISA analyses of RIPA-soluble and formic-acid soluble hippocampal and cortical tissue protein extracts.
(§2) We directly tested whether pre-symptomatic inhibition of inflammation in a mouse genetic model of Alzheimer disease can stem the progression of memory and behavioral deficits, and Alzheimer disease-like pathology. The J20 amyloid precursor protein Swedish/Indiana mutant mouse was treated at 2 months of age for a one month period with 50 mg/Kg Caspase-1 inhibitor VX-765 (FIG. 22a).

[5] = tested on: J20 mice; assay: APP, Casp1, Casp6, IDE and neprilysin expression, treated symptomatic J20 mice; type: in vivo, mouse; settings: RT-PCR, J20 brains, preliminary
Source text: FIG. 5: Western blot against the C-terminus (C11) and Aβ (6E10) regions of APP in TREATMENT mice groups before washout.
FIG. 11: VX-765 prevents the progression of Aβ in J20 mice. (a) Aβ immunohistographs of the stratum lacunosum molecular layer of the hippocampus and S1 cortex of pre-treated 5-month old J20 (baseline) and 8-month old vehicle- or VX-765-treated WT or J20 mice with anti-F2576 antiserum (Scale bar=50 μm). (b) Quantitative analysis comparing Aβ immunostaining density between J20+Vehicle (n=5) and J20+VX-765 (n=4) mice in the hippocampus from the pyramidal cell layer to the stratum lacunosum molecular layer (p=0.0029) and cortex (p=0.0314, unpaired t test). (c) Quantitative analysis comparing RIPA-soluble Aβ42 over total Aβ (Aβ38+Aβ40+Aβ42) levels in pre-treated 5-month old J20, 8-month old vehicle- or VX-765 treated J20 mice hippocampus (F(2,9)=6.614, p=0.0171, ANOVA, Tukey's post-hoc, * p<0.05). No ELISA signal was obtained from WT mice brains. (d) RIPA-soluble total Aβ measured by ELISA in pg/mg brain tissue. (e,f) Formic acid soluble Aβ42 over total Aβ (Aβ38+Aβ40+Aβ42) (e) and total Aβ (f) levels measured by ELISA in pg/mg brain tissue. Student t-test used to assess difference between J20+vehicle and J20+VX-765. (g,h,i) RIPA-soluble and (j,k,l) formic acid soluble Aβ38, Aβ40, and Aβ42 measured by ELISA in pg/mg brain tissue. […]

[6] = tested on: J20 mice; assay: Barnes maze, preventive treatment of pre-symptomatic J20 mice; type: in vivo, mouse
Source text: FIG. 23: Barnes maze to assess spatial memory in J20 mice. Barnes maze tested at washout at (a-c) 12 week (6 months of age) and (d-f) 20 week (8 months of age). (a,d) Learning to find the escape hatch over 4 days in seconds. (b,e) Primary latency to reach the escape hatch and primary errors to find the hatch. In (b) One-way ANOVA (F(2,29)=5.948, p=0.0068), in (e) One-way ANOVA (F(2,22)=7.2545, p=0.0038) followed by Dunnett's pot-hoc *p<0.05, ** p<0.01. (c,f) Probe test: number of pokes for each of the 20 holes of the Barnes maze when hatch hole is blocked. T indicates target hole where hatch was accessible during training.
as §2

CCO[C@@H]1OC(=O)C[C@@H]1NC(=O)[C@@H]1CCCN1C(=O)[C@@H](NC(=O)c1ccc(N)c(Cl)c1)C(C)(C)C [VX-765, (S)-1-((S)-2-{[1-(4-amino-3-chloro-phenyl)-methanoyl]-amino}-3,3-dimethyl-butanoyl)-pyrrolidine-2-carboxylic acid ((2R,3S)-2-ethoxy-5-oxo-tetrahydro-furan-3-yl)-amide]
blood brain barrier crossing [1]: crossed the blood brain barrier | concentrations in hippocampus and cortex [1]: reached physiologically active concentrations | metabolism of the pro-drug [1]: metabolized into VRT-043198 | Iba1-positive microglia in hippocampus CA1 ([2]; 50 mg/kg, 12 injections, 8 month old J20): normalized; also recorded: reduced to WT levels | number of Iba1+ microglia, pyramidal cell layer to stratum lacunosum molecular layer of CA1 ([2]; 50 mg/kg, after Treatment 3, stereological quantification): returned to normal | microglial activation measured morphologically ([2]; hippocampus and cortex, vs vehicle-treated J20): more resting, and less activated, microglia | pIC50 [3]: 8.43 | RIPA-soluble Aβ38, Aβ40, Aβ42, total Aβ, Aβ42/total Aβ ([4]; ELISA, hippocampal tissue): do not detect major differences | formic acid soluble Aβ measures ([4]; cortical): not reduced | amyloid levels in RIPA-soluble protein extracts ([4]; cortical tissue): no effect | immunopositive density of amyloid staining ([4]; hippocampi and cortex, 16 and 20 week washout): slightly less amyloid | formic acid soluble Aβ42/total Aβ ([4]; hippocampi, 20 week washout): lower | RIPA-soluble Aβ42/total Aβ ([4]; hippocampus, 20 week washout): slightly decreased | Casp1 and Casp6 mRNA [5]: reduction | Barnes maze ability to distinguish the target area ([6]; 12-week washout): better ability to distinguish the target area | Barnes maze primary errors ([6]; 12-week washout): corrected this deficit | Barnes maze primary latency ([6]; 12-week washout (6 months of age)): tended towards a better performance | Barnes maze identifying the target area in probe test ([6]; 20-week washout): performed better than the Vehicle-treated J20 mice | Barnes maze learning phase ([6]; 20-week washout): performed normally in the learning phase | Barnes maze primary latency and primary errors ([6]; 20-week washout): did not reach statistical significance
